Data as given in PubChem BioAssay (NCI).
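48-hour exposure; five concentrations; linearly interpolated endpoints. The concentration for full growth arrest is given as TGI.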

Assays:
Assay in all cases: growth of human tumour cells (NCI), 48 h
UACC-257 melanoma = system: UACC-257 melanoma
SR leukemia = system: SR leukemia
EKVX NSCLC = system: EKVX NSCLC
MALME-3M melanoma = system: MALME-3M melanoma
SK-OV-3 ovarian = system: SK-OV-3 ovarian
T-47D breast = system: T-47D breast
LOX IMVI melanoma = system: LOX IMVI melanoma
OVCAR-8 ovarian = system: OVCAR-8 ovarian
HT29 colon = system: HT29 colon
SF-295 CNS = system: SF-295 CNS
SNB-75 CNS = system: SNB-75 CNS
SK-MEL-2 melanoma = system: SK-MEL-2 melanoma
SN12C renal = system: SN12C renal
OVCAR-3 ovarian = system: OVCAR-3 ovarian
BT-549 breast = system: BT-549 breast
RPMI-8226 leukemia = system: RPMI-8226 leukemia
OVCAR-4 ovarian = system: OVCAR-4 ovarian
MCF7 breast = system: MCF7 breast

SMILES | TGI (UACC-257 melanoma) [µM] | TGI (SR leukemia) [µM] | TGI (EKVX NSCLC) [µM] | TGI (MALME-3M melanoma) [µM] | TGI (SK-OV-3 ovarian) [µM] | TGI (T-47D breast) [µM] | TGI (LOX IMVI melanoma) [µM] | TGI (OVCAR-8 ovarian) [µM] | TGI (HT29 colon) [µM] | TGI (SF-295 CNS) [µM] | TGI (SNB-75 CNS) [µM] | TGI (SK-MEL-2 melanoma) [µM] | TGI (SN12C renal) [µM] | TGI (OVCAR-3 ovarian) [µM] | TGI (BT-549 breast) [µM] | TGI (RPMI-8226 leukemia) [µM] | TGI (OVCAR-4 ovarian) [µM] | TGI (MCF7 breast) [µM]
CCOP(=O)(OCC)/C(C#N)=C/c1cccn1C(C)C | > 100 | > 100 | > 100 | > 100 | > 100 | > 100 | > 100 | > 100 | > 100 | > 100 | > 100 | > 100 | > 100 | > 100 | > 100 | – | – | –
Cc1cc(Cl)nc2nc(Cl)c(N)cc12 | 3.55 | > 25.2 | 10.5 | 29.3 | 37.8 | 15.4 | 3.63 | 8.55 | – | 29.9 | 30 | 31.4 | 3.21 | 3.27 | 28.4 | 5.74 | 8.91 | > 22.2
CCNC(=O)c1cc(Cl)ccc1NC(=O)C12CC3CC(CC(C3)C1)C2 | > 100 | – | 60.6 | > 100 | – | > 100 | > 100 | > 100 | 37.3 | > 100 | – | 81.9 | > 100 | > 100 | > 100 | 86.7 | > 100 | > 100
S=C(NCCc1ccccn1)N/N=C/c1ccccn1 | 1.77 | < 0.0182 | > 27.7 | > 56.5 | > 100 | > 100 | 22.5 | > 100 | > 100 | > 100 | > 100 | 9.9 | 13.3 | > 100 | – | 0.186 | > 74.7 | –
CCOC(=O)c1nc2ccc(C(F)(F)F)cc2nc1Nc1cc(OC)c(OC)c(OC)c1 | > 100 | > 100 | > 100 | > 100 | > 100 | > 100 | > 100 | > 100 | > 100 | > 100 | > 100 | – | > 100 | > 100 | > 100 | > 100 | – | > 100
COc1cc(C)c(/C=C2/N=C(c3ccccc3)OC2=O)c([N+](=O)[O-])c1OC | > 100 | – | > 100 | > 100 | > 100 | > 100 | > 100 | > 100 | > 100 | > 100 | > 100 | > 100 | > 100 | > 100 | > 100 | > 100 | > 100 | > 100
Clc1cc2nn(C3CCCCO3)nc2cc1Cl (centres undefined) | > 100 | > 100 | > 100 | > 100 | > 100 | > 100 | – | > 100 | > 100 | > 100 | > 100 | > 100 | > 100 | > 100 | > 100 | – | > 100 | > 100
O=C1CSC(c2c[nH]c3ccccc23)N1c1ccc(Cl)cc1 (centres undefined) | > 100 | – | > 100 | – | > 100 | > 100 | – | > 100 | > 100 | > 100 | > 100 | > 100 | > 100 | > 100 | > 100 | > 100 | > 100 | > 100
O=[N+]([O-])C(/C=C(\Cl)[N+](=O)[O-])=C1Nc2ccccc2N1 | > 100 | 75.1 | > 100 | > 100 | > 100 | 69 | > 100 | > 100 | > 100 | > 100 | > 100 | – | > 100 | > 100 | > 100 | > 100 | > 100 | > 100
CCCCn1c(CSc2ccc(Cl)cc2)c(C(=O)OCC)c2cc(OC)c(Br)cc21 | > 100 | > 100 | > 100 | > 100 | > 100 | > 100 | > 100 | > 100 | – | > 100 | > 100 | > 100 | > 100 | > 100 | > 100 | > 100 | > 100 | –
COc1ccc(/C=C/C(=O)/C=C/c2ccc(OC)cc2OC)c(OC)c1 | 39.9 | 13.1 | 33.3 | 26.9 | 37.7 | > 100 | 18.1 | 41.1 | 12.7 | 72.5 | 45.1 | 13.1 | 65.2 | 7.37 | 48 | 18.6 | 46.3 | –
c1cc(-c2ccc(-c3ccc(-c4ccc(-c5ccncc5)o4)cc3)o2)ccn1 | 29.6 | 58.8 | 45 | 34.7 | 45.2 | 40.9 | 42.8 | 33.5 | 44.7 | 30.9 | 36.6 | – | 45.5 | 63.8 | 30.7 | – | 65.4 | 38.7
COc1ccc(/C(C)=N/NC(=O)c2ccncc2)c(OC)c1 | > 10 | > 10 | > 10 | > 10 | > 10 | > 10 | > 10 | > 10 | – | – | > 10 | – | > 10 | – | > 10 | > 10 | > 10 | > 10
Cc1ccc(C2(c3ccc(Cl)cc3)c3ccccc3C3=NCCN32)cc1 (centres undefined) | 20.7 | – | 28.9 | 16 | 20.7 | 39.2 | 27.7 | 29.4 | 14.6 | 20.6 | 24.9 | 28 | 29.7 | 24.9 | 25.9 | 28.9 | 16.9 | 20.5
